Experimental data as given in patent US12220393B2, “Compositions and methods for the treatment of zika viral diseases” (The ProImmune Company LLC, priority 2017, dated 2025).

Experiments:
[1] = tested on: Zika virus; experiment: Quantification of Zika virus titers in infected Vero cells; type: cell-based; details: BSO 200 μM, MOI 0.1
Experimental: (§1) FIGS. 4A and 4B show effect of FFAAP on total intracellular GSH and Zika virus replication in Zika virus infected Vero cells (ZIKV). Vero cells, grown to approximately 90-95% confluence (mid-log phase), were treated with and grown in the presence of increasing concentrations of FFAAP for 3 days. At each time point, medium was discarded and cells were harvested to measure intracellular concentrations of total GSH. […] All experiments shown were performed in triplicates and the data shown are representative data from multiple independent experiments. Standard error bars were calculated using Microsoft Excel and significance assessments were performed using GRAPHPAD PRISM. * indicates a p-value <0.05 and >0.01; ** indicates a p-value <0.01 and >0.001; and *** indicates a p-value <0.001.
(§2) FIG. 5A-5D show effects of inhibition of glutathione biosynthesis on Zika virus replication in Vero cells. […] Standard error bars were calculated using Microsoft Excel and significance assessments were performed using GRAPHPAD PRISM. * indicates a p-value <0.05 and >0.01; ** indicates a p-value <0.01 and >0.001; and *** indicates a p-value <0.001.
FFAAP treatment of cells. […] Cells infected with Zika virus were treated with the above concentration 1.5 hours post adsorption for quantification of virus titers. […]

[2] = tested on: Zika virus; experiment: Quantification of Zika virus titers in infected JEG-3 cells; type: cell-based; details: BSO 200 μM
Experimental: (§3) FIGS. 6A-6D show effects of inhibition of glutathione biosynthesis on Zika virus replication in JEG-3 cells. […] All experiments were performed in triplicates and the data shown are representative data from multiple independent experiments. Standard error bars were calculated using Microsoft Excel and significance assessments were performed using GRAPHPAD PRISM. * indicates a p-value <0.05 and >0.01; ** indicates a p-value <0.01 and >0.001; and *** indicates a p-value <0.001.
FFAAP treatment of cells. […] Cells infected with Zika virus were treated with the above concentration 1.5 hours post adsorption for quantification of virus titers. For plaque enumeration assay cells were treated with FFAAP at the time of adsorption and the treatment was continued for 3 days in semi-solid medium. For these assays the final concentrations in the cell culture medium of the infected and uninfected cells were 0, 2.5, 5.0, and 10 mM FFAAP from solubilized stock solution prepared for FFAAP. Inhibitory concentration (IC50) was used as per definitions provided by GRAPHPAD Software) to evaluate dose-response curves.
Approximately 95% sub-confluent Vero cells or JEG-3 cells were infected Zika in a 48-well plate. After 1.5 hours post-adsorption (HPA), virus inoculum was removed and media with or without FFAAP was added to the respective wells. […]

[3] = tested on: total intracellular glutathione; experiment: Total intracellular glutathione in Zika virus infected Vero cells; type: cell-based, African green monkey (Chlorocebus sp.); details: by 48 hours post BSO-treatment
Experimental: as §1, §2
(§4) Glutathione Precursors and Glutathione Assays. […] Effective blockade was assessed by measurements of intracellular reduced and oxidized glutathione in the presence of inhibitor.

[4] = tested on: intracellular glutathione; experiment: Intracellular glutathione in JEG-3 cells; type: cell-based, human
Experimental: as §3
FIGS. 7A-F show total intracellular GSH concentrations in various cells that were treated with BSO, FFAAP, and a combination of BSO and FFAAP at day 0 and day 2. FIGS. 7A-7C show intracellular GSH concentration in African green monkey (Chlorocebus sp.) Vero cells. […]
Glutathione Precursors and Glutathione Assays. […] Intracellular glutathione levels (GSSG/GSH) were measured to quantify the levels of newly biosynthesized intracellular glutathione with molar quantities calculated using standard curves prepared with reduced and oxidized glutathione (Enzo Life Sciences, Farmingdale, NY), Standard error of the mean (SEM) was calculated using values from triplicate samples and coefficient of variance was calculated within each sample for each specific treatment group. […] Effective blockade was assessed by measurements of intracellular reduced and oxidized glutathione in the presence of inhibitor.

[5] = tested on: total intracellular glutathione (GSH+GSSG); experiment: Total intracellular glutathione in uninfected Vero cells; type: cell-based, African green monkey (Chlorocebus sp.); details: BSO treatment, initial studies
Experimental: African green monkey (Chlorocebus sp.) Vero cells, grown to approximately 90-95% confluence (mid-log phase), were treated with and grown in the presence of increasing concentrations of FFAAP for three days. At each time point, medium was discarded and cells were harvested to measure intracellular concentrations of total GSH. All experiments shown were done in triplicate and the data shown are representative data from multiple independent experiments performed. Standard error bars were calculated using MICROSOFT EXCEL and significance assessments were performed using GRAPHPAD PRISM. * indicates a p-value <0.05 and >0.01; ** indicates a p-value <0.01 and >0.001; and *** indicates a p-value <0.001.
Uninfected Vero cells were treated with 0, 2, 4, 6 mM concentrations of free-form amino acid precursors (FFAAP) for 72 hours. Vero cells infected with Zika virus were treated with the above concentration immediately for quantification of virus titers. […]
as §4
To determine the levels of intracellular glutathione in uninfected cells, FFAAP-treated and untreated cells, we quantified GSH/GSSG levels in each cell line over three days. Growth and viability of the cells were also assessed. […]

SMILES: CCCCS(=N)(=O)CC[C@H](N)C(=O)O (stereo partly drawn) [BSO, buthionine-(S,R)-sulfoximine]
- Zika virus replication in Vero cells treated with BSO [1]: Zika virus replicates even in Vero cells treated with BSO
- Zika virus replication on blockage of glutathione biosynthesis [2]: inhibition of Zika virus replication
- intracellular levels of glutathione [3]: undetectable
- intracellular glutathione levels ([4]; JEG-3 cells, BSO treatment, initial studies): undetectable levels
- intracellular GSH synthesis ([4]; Zika virus infected JEG-3 cells): blocked intracellular GSH synthesis
- intracellular glutathione levels [5]: undetectable levels
